Results published in US8377974B2 (Millennium Pharmaceuticals, Inc., priority 2004, dated 2013).

Target: T1, human plasma protein factor Xa (Homo sapiens, UniProt P00742)
T1 construct: measure proteolytic activity of the enzyme (factor Xa); purchased Haematologic Technologies (Essex Junction, Vt.); host or cells: human plasma
Test: Factor Xa IC50 determination: cleavage of paranitroanilide substrate S-2765 in 96-well plates
Type: biochemical
Conditions: fXa 1 nM, S-2765 100 μM, Tris buffered saline pH 7.4, room temperature
Outline: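 Initial rates of S-2765 (100 μM final) cleavage, read at 405 nm for 2 min, fitted with a four-parameter equation to give IC50. Enzyme: 1 nM human plasma fXa, 5 min room-temperature preincubation with inhibitor (0.01 nM–10 μM) in 20 mM Tris, 150 mM NaCl, 5 mM CaCl2, 0.1% BSA, 5% DMSO, pH 7.4; duplicates.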

T1 sequence (P00742 235-488 limits assumed): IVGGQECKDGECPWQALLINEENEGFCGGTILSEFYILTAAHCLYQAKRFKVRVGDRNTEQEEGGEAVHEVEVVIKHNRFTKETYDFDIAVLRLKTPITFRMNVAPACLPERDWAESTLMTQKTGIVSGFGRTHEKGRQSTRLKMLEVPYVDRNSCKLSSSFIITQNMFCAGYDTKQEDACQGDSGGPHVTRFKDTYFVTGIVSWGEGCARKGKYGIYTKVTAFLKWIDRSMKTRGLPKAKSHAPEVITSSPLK
T1 sequence (P00742 41-179 partner limits assumed): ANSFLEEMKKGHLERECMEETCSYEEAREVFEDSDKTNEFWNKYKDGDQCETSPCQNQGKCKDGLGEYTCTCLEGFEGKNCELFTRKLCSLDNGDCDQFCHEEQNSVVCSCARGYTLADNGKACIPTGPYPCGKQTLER

Structure (SMILES) | IC50 [nM]
C[C@H](NC(=O)c1ccc(Cl)s1)c1cc(-c2ccc(C3=NCCN3C)cc2)no1 [Example 54, (S)-5-Chloro-thiophene-2-carboxylic acid (1-{3-[4-(1-methyl-4,5-dihydro-1H-imidazol-2-yl)-phenyl]-isoxazol-5-yl}-ethyl)-amide] | ≥ 500
Nc1ccc(-c2cc(CNC(=O)c3ccc(Cl)s3)on2)cc1 [Example 161, 5-Chloro-thiophene-2-carboxylic acid [3-(4-amino-phenyl)-isoxazol-5-ylmethyl]-amide] | ≤ 100
O=C(NCC1CC(C2CCN(Cc3ccccc3)CC2)=NO1)c1ccc(Cl)s1 (centres unmarked) [Example 170, 5-Chloro-thiophene-2-carboxylic acid [3-(1-benzyl-piperidin-4-yl)-4,5-dihydro-isoxazol-5-ylmethyl]-amide] | ≥ 500
O=C(NCC1CC(c2ccc(N3CCCCC3=O)cc2)=NO1)c1ccc(Cl)s1 (centres unmarked) [Example 241, 5-Chloro-thiophene-2-carboxylic acid {3-[4-(2-oxo-piperidin-1-yl)-phenyl]-4,5-dihydro-isoxazol-5-ylmethyl}-amide] | 100 to 500
O=C(NCc1cc(-c2ccc(C(N3CCC3)=[N+]3CCC3)cc2)no1)c1ccc(Cl)s1 [Example 27, 5-Chloro-thiophene-2-carboxylic acid {3-[4-(azetidin-1-yl-azetidin-1-ylidene-methyl)-phenyl]-isoxazol-5-ylmethyl}-amide] | ≤ 100
CN(C)Cc1cccc(-c2ccc(-c3cc(CNC(=O)c4ccc(Cl)s4)on3)cc2)c1 [Example 211, 5-Chloro-thiophene-2-carboxylic acid [3-(3′-dimethylaminomethyl-biphenyl-4-yl)-isoxazol-5-ylmethyl]-amide] | 100 to 500
N=C(c1ccccc1)N1CCC(C2=NOC(CNC(=O)c3ccc(Cl)s3)C2)CC1 (centres unmarked) [Example 174, 5-Chloro-thiophene-2-carboxylic acid {3-[1-(imino-phenyl-methyl)-piperidin-4-yl]-4,5-dihydro-isoxazol-5-ylmethyl}-amide] | ≥ 500
COC(=O)c1ccc(-c2cc(CNC(=O)c3ccc(Cl)s3)on2)cc1 [Example 157, 4-(5-{[(5-Chloro-thiophene-2-carbonyl)-amino]-methyl}-isoxazol-3-yl)-benzoic acid methyl ester] | ≥ 500

Now from value to compound:

IC50 [nM] | Structure (SMILES)
≤ 100 | Cc1ccn(-c2ccc(-n3cc(CNC(=O)c4ccc(Cl)s4)nn3)cc2)c(=O)c1 [Example 295, 5-Chloro-N-((1-(4-(4-methyl-2-oxopyridin-1(2H)-yl)phenyl)-1H-1,2,3-triazol-4-yl)methyl)thiophene-2-carboxamide]
≥ 500 | O=C(NCC1CC(c2cccc(-c3ccc(CN4CCCC4)cc3)c2)=NO1)c1ccc(Cl)s1 (centres unmarked) [Example 267, 5-Chloro-thiophene-2-carboxylic acid [3-(4′-pyrrolidin-1-ylmethyl-biphenyl-3-yl)-4,5-dihydro-isoxazol-5-ylmethyl]-amide]
≥ 500 | CN(C)CCN(C)C(=N)c1ccc(-c2nc(CNC(=O)c3ccc(Cl)s3)cs2)cc1 [Example 355, N-((2-(4-(N-(2-(Dimethylamino)ethyl)-N-methylcarbamimidoyl)phenyl)thiazol-4-yl)methyl)-5-chlorothiophene-2-carboxamide]
100 to 500 | CN(C)C(=N)c1ccc(-c2nc(CNC(=O)c3ccc(Cl)s3)cs2)cc1 [Example 350, N-((2-(4-(N,N-Dimethylcarbamimidoyl)phenyl)thiazol-4-yl)methyl)-5-chlorothiophene-2-carboxamide]
≥ 500 | O=C(NCC1CC(c2ccc(N3CCOCCC3=O)cc2F)=NO1)c1ccc(Cl)s1 (centres unmarked) [Example 249, 5-Chloro-thiophene-2-carboxylic acid {3-[2-fluoro-4-(5-oxo-[1,4]oxazepan-4-yl)-phenyl]-4,5-dihydro-isoxazol-5-ylmethyl}-amide]
≤ 100 | O=C(NCc1cn(-c2ccc(N3CCCCC3=O)nc2)nn1)c1ccc(Cl)s1 [Example 388, 5-Chloro-N-((1-(6-(2-oxopiperidin-1-yl)pyridin-3-yl)-1H-1,2,3-triazol-4-yl)methyl)thiophene-2-carboxamide]
